Activity calls are given as the source filed them.
Tests used:
[1] = molecular target: T1, Corticotropin-releasing factor receptor 2/Corticotropin-releasing factor-binding protein (Homo sapiens, UniProt P24387+Q13324); experiment: Dose Response confirmation of uHTS hits for small molecule antagonists of the CRF-binding protein and CRF-R2 receptor complex.; type: functional; conditions: read-out: IC50_Mean
T1 sequence (Q13324 whole entry): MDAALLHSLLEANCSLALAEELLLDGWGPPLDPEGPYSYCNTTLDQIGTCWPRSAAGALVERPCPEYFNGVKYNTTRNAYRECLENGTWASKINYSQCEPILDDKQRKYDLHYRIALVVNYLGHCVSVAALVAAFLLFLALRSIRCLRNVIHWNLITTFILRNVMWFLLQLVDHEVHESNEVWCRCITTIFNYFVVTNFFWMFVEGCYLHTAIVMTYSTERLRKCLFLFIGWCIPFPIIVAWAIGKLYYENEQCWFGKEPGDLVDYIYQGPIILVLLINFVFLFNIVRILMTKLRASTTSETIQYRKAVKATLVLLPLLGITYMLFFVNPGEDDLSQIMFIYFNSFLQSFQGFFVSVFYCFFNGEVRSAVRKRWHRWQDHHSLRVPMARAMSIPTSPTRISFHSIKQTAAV
T1 sequence (P24387 whole entry): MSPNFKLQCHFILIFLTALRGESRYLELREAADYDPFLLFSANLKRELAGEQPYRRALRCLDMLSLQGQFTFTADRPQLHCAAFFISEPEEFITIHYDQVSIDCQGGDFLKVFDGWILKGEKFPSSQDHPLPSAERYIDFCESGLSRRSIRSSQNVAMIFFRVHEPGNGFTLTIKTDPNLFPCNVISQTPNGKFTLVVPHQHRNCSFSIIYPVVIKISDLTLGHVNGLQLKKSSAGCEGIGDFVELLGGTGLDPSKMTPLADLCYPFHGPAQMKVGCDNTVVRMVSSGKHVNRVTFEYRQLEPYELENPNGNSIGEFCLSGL

[2] = molecular target: T2, fMet-Leu-Phe receptor (Homo sapiens, UniProt P21462); experiment: formyl peptide receptor binders – dose response (AID 519); type: functional
T2 sequence (P21462 whole entry): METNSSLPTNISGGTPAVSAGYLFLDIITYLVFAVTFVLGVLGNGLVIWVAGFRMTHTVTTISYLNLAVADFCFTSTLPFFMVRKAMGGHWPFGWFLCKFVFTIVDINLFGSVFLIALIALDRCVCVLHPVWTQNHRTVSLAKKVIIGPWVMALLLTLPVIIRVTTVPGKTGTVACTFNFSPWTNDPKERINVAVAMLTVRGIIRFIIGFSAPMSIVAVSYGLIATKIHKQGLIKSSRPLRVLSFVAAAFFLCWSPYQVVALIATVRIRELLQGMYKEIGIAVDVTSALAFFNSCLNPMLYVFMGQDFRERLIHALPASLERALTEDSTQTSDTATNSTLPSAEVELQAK

[3] = molecular target: T1, Corticotropin-releasing factor receptor 2/Corticotropin-releasing factor-binding protein; experiment: activators of CRF receptor 2 with binding protein – uHTS hits, confirmation (AID 602473); type: functional; conditions: read-out: EC50_Mean
[4] = molecular target: Paired box protein Pax-8 (Homo sapiens, UniProt Q06710); experiment: PAX8 transcriptional activity inhibition in RMG-I – RMG-I cells, luciferase, cherry-pick, dose response (AID 687027); type: functional, cell-based;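 also: luciferase reporter driven by Pax8 target thyroperoxidase promoter measured by SteadyGlo luminescence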
[5] = molecular target: T3, Streptokinase A (Streptococcus pyogenes serotype M1, UniProt P10520); experiment: viability-normalized secreted streptokinase activity reduction – plasminogen activation absorbance, OD405, dose response (AID 1914); type: functional, Streptococcus pyogenes M1 GAS;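 also: secreted streptokinase activity via plasminogen activation per viability signal from cell pellet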
T3 sequence (P10520 whole entry): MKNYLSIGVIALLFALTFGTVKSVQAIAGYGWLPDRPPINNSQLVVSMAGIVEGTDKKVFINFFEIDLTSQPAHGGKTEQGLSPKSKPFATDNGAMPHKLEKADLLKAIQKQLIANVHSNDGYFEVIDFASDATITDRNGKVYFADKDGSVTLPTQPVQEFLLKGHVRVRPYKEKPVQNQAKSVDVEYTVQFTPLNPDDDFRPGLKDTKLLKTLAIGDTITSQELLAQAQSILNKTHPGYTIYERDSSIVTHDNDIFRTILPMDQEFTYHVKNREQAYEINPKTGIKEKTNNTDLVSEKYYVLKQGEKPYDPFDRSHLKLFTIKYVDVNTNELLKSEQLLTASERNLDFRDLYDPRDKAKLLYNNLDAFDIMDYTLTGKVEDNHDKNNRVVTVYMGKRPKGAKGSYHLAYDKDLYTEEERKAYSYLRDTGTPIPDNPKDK

[6] = system: H9c2; experiment: cells; type: functional, cell-based; conditions: Rattus norvegicus, H9c2, Myocardium;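 also: confirmatory concentration-response retest of ultra-high-throughput screening hits for modulation of myocardial damage; cell death induced by hydrogen peroxide oxidative stress; compound pretreatment for 60 min then peroxide exposure for 2 h; potency is for protecting the cells against peroxide damage rather than for killing them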
[7] = system: Streptococcus; experiment: GAS UMAA2166 growth inhibition – luminescence, BacTiterGlo, counter-screen for streptokinase expression inhibitor project, dose response (AID 1915); type: functional, organism-based;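 also: potency for reduction of bacterial viability or growth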
[8] = general cell-killing toxicity readout – plate reader, dry powder samples, cytotoxicity control for PAX8 inhibitor project, dose response (AID 743021); type: functional, cell-based
[9] = Luminescence Cell-Based Dose Retest to Confirm Inhibitors of Cancer Stem Cells. [Related pubchem assays (depositor defined):AID2717, AID2721]; type: functional; conditions: Homo sapiens
[10] = system: Streptococcus sp. 'group A'; experiment: Streptococcus pyogenes SK(-)GAS viability under kanamycin – luminescence, BacTiterGlo, confirmation, counter-screen for streptokinase expression inhibitor project, dose response (AID 1900); type: functional, organism-based
[11] = molecular target: Cytochrome P450 2C19 (Homo sapiens, UniProt P33261); experiment: Cytochrome panel assay with activity outcomes. Panel member name: p450-cyp2c19 Compounds with AC50 equal or less than 10 uM are considered active; type: functional; conditions: read-out: AC50
[12] = molecular target: Cytochrome P450 2C9 (Homo sapiens, UniProt P11712)
[13] = molecular target: T4, Zinc finger protein mex-5 (Caenorhabditis elegans, UniProt Q9XUB2); experiment: potency of MEX-5 RNA-binding blockers – biochemical, C. elegans, fluorescence polarization, dose response (AID 1960)
T4 sequence (Q9XUB2 whole entry): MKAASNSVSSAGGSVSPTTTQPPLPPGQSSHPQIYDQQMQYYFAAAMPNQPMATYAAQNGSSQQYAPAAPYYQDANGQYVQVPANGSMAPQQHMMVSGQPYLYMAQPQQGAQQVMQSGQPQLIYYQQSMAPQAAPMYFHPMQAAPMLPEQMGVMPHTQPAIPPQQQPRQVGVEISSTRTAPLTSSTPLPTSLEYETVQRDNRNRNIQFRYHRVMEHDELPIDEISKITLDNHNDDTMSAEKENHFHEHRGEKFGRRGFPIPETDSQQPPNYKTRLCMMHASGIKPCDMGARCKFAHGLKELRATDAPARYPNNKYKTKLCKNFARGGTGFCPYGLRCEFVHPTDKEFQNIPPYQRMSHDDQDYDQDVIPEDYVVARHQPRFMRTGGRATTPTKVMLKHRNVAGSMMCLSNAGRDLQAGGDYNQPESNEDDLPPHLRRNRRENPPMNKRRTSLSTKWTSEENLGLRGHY

[14] = molecular target: T5, RNA-binding protein pos-1 (Caenorhabditis elegans, UniProt G5EF15); experiment: disruptors of C. elegans POS-1 RNA interaction – biochemical, fluorescence polarization, dose response (AID 1964);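 also: purified POS-1 fused to maltose binding protein made in E. coli; potency of compounds blocking POS-1 binding to fluorescent RNA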
T5 sequence (G5EF15 whole entry): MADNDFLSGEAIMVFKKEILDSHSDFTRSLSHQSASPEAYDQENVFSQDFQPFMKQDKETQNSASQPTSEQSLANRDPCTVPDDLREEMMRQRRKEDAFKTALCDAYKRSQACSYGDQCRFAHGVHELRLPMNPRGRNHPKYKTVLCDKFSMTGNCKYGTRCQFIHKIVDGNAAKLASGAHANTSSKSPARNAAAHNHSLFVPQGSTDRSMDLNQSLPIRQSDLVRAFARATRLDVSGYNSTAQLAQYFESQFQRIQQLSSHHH

[15] = molecular target: T6, Endoribonuclease toxin MazF (Escherichia coli K-12, UniProt P0AE70); experiment: substrate-only fluorescence increase artefacts – biochemical, single-stranded RNase substrate, counter-screen for MazEF activator project, dose response (AID 588502); type: functional
T6 sequence (P0AE70 whole entry): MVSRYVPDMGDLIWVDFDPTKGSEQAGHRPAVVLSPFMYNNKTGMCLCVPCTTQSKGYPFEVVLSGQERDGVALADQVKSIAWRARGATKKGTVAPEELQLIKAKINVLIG

[16] = molecular target: T6, Endoribonuclease toxin MazF; experiment: activation of MazEF endoribonuclease cleavage – biochemical, fluorescence, single-stranded RNA substrate, uHTS hits, dose response (AID 588481); type: functional
[17] = molecular target: Induced myeloid leukemia cell differentiation protein Mcl-1 (Homo sapiens, UniProt Q07820); type: functional
[18] = molecular target: T7, Histone-lysine N-methyltransferase NSD2 (Homo sapiens, UniProt O96028); type: biochemical
T7 sequence (O96028 whole entry): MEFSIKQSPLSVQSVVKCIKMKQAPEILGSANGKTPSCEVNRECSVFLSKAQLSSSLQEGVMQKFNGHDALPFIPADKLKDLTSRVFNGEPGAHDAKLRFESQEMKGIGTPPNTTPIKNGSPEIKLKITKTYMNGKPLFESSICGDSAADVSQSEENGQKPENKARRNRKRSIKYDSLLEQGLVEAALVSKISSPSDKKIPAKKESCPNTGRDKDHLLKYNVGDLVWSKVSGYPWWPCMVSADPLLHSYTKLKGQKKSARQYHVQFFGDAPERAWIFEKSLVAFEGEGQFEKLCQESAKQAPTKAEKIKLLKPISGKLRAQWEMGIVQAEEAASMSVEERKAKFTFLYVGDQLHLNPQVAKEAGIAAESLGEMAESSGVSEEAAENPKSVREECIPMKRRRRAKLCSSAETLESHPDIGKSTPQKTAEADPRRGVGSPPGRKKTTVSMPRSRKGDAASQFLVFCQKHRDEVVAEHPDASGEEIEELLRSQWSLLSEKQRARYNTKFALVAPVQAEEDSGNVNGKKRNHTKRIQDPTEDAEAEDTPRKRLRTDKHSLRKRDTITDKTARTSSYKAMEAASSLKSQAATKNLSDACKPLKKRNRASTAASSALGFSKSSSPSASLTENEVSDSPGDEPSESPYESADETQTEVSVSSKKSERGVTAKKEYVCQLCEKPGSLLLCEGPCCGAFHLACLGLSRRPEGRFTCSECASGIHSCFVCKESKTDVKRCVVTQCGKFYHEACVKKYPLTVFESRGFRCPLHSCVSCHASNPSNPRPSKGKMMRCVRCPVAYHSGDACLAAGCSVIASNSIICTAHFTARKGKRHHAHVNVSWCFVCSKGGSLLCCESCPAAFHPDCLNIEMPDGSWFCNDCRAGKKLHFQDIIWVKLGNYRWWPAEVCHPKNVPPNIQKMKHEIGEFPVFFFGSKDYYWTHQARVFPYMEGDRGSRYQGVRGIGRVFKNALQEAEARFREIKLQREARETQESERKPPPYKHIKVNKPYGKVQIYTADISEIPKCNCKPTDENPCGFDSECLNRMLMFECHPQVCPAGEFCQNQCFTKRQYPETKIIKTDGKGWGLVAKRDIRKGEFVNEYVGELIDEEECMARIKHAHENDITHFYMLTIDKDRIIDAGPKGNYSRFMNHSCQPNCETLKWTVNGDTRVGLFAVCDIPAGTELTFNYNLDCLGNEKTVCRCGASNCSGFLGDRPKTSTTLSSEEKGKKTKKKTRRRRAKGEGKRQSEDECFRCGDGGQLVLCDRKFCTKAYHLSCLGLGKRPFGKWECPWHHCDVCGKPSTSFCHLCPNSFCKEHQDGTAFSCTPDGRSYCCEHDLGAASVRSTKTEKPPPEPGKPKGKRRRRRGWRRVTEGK

Sequence of Cytochrome P450 2C19 (P33261 whole entry): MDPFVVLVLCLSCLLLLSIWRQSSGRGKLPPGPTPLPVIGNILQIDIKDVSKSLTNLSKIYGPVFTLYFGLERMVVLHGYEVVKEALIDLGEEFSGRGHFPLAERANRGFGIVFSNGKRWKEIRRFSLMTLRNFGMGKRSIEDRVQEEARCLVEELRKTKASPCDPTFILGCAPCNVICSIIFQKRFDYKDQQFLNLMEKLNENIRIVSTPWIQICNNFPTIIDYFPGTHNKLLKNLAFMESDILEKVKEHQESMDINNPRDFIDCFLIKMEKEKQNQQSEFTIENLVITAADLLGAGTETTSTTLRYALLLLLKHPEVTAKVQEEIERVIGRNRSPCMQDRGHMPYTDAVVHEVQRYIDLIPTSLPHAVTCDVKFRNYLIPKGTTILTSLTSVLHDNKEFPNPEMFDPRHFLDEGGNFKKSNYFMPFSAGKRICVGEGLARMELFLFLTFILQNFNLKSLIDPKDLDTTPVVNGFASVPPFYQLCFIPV
Sequence of Paired box protein Pax-8 (Q06710 whole entry): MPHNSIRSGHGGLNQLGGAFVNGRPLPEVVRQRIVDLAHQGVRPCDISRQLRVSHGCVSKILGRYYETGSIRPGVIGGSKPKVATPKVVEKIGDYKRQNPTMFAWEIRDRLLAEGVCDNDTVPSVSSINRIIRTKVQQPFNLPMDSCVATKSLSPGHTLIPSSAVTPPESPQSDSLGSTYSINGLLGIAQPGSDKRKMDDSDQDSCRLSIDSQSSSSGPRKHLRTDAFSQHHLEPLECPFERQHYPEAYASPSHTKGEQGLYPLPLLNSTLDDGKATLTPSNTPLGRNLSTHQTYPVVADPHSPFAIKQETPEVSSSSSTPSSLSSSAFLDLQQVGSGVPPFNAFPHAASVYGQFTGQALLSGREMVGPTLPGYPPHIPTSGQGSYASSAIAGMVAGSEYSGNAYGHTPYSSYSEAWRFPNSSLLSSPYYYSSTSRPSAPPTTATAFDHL
Sequence of Cytochrome P450 2C9 (P11712 whole entry): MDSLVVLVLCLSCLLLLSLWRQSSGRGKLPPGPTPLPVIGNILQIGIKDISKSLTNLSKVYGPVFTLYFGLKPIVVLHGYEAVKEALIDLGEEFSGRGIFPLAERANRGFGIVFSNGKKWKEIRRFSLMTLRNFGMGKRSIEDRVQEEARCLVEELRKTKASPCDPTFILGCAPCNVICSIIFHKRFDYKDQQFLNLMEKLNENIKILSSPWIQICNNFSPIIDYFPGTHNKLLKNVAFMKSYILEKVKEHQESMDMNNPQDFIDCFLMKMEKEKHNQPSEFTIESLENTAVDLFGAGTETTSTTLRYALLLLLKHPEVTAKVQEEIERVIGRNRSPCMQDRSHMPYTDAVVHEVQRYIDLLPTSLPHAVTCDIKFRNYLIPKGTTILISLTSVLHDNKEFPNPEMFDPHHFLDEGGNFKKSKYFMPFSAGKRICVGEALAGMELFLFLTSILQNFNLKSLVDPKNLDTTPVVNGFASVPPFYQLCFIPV
Sequence of Induced myeloid leukemia cell differentiation protein Mcl-1 (Q07820 whole entry): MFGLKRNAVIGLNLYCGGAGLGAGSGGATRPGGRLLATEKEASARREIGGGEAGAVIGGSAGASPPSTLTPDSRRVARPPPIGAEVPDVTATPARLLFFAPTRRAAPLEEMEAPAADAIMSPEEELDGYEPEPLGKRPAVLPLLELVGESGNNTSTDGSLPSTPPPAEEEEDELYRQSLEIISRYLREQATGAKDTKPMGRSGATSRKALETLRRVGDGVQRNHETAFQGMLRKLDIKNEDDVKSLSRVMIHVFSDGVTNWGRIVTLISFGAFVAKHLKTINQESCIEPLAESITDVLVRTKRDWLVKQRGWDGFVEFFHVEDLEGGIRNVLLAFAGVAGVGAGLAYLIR

COc1cc(C2C(C(=O)c3ccco3)=C(O)C(=O)N2c2cc(C)on2)cc(Br)c1O (stereo not given)
IC50 [1]: > 47.1 µM (inactive)
Ki [2]: 47.7 µM (inactive)
EC50 [3]: > 53 µM (inactive)

COc1ccccc1Oc1c(C)oc2c(CN(C)C)c(O)ccc2c1=O
Ki [2]: > 66.7 µM (inactive)

O=C(Nc1cccc(NC(=O)c2ccc([N+](=O)[O-])o2)c1)c1ccco1
AC50 [4]: 5.2 µM (active)
EC50 [5]: 111 µM (active)
IC50 [6]: > 79 µM (inactive)
EC50 [7]: 22.7 µM (active)
AC50 [8]: 66.2 µM (active)
AC50 [9]: 2.95 µM (active)
EC50 [10]: 7.34 µM (active)

Cc1nc2c(C)cccn2c1C(=O)C1=C(O)C(=O)N(CCN2CCOCC2)C1c1cccs1 (stereo not given)
AC50 [11]: 8.91 µM (inconclusive)
Ki [2]: > 66.7 µM (inactive)
AC50 [12]: 10 µM (inconclusive)

CC1=CC(=C2N=C(c3ccccc3)OC2=O)C=C(C)O1
EC50 [13]: 12.3 µM (inconclusive)
EC50 [14]: 142 µM (inconclusive)
EC50 [15]: > 99 µM (inactive)
EC50 [16]: > 99 µM (inactive)

COC(=O)c1[nH]c2ccccc2c1/C=C1\C(=O)NC(=O)N(c2ccc(Br)cc2)C1=O
IC50 [17]: 9.03 µM (active)
AC50 [18]: > 20 µM (inactive)

Source: ChEMBL document CHEMBL1201862, “PubChem BioAssay data set” (2004)
